Values of other authors, collected in US6464987B1, “Pharmaceutical compositions capable of being gelled” (UCB, S.A., priority 1998, dated 2002).
Where two headings read alike, the source gives them in different places.

Tests used:
[1] = mouse, in vivo
humans = details: PLA-GA implants or PLA-GA microparticles

SMILES	bioavailability ([1]; im)	bioavailability ([1]; sc)	level of testosterone in the blood (humans)
NC(=O)[C@@H]1CCCN1C(=O)[C@H](Cc1cnc[nH]1)NC(=O)[C@@H]1CCC(=O)N1 [TRH, thyrotropin releasing hormone]	31.4%	67.5%	–
CC(C)C[C@H](NC(=O)[C@@H](COC(C)(C)C)NC(=O)[C@H](Cc1ccc(O)cc1)NC(=O)[C@H](CO)NC(=O)[C@H](Cc1c[nH]c2ccccc12)NC(=O)[C@H](Cc1cnc[nH]1)NC(=O)[C@@H]1CCC(=O)N1)C(=O)N[C@@H](CCCNC(=N)N)C(=O)N1CCC[C@H]1C(=O)NNC(N)=O [gosereline]	–	–	very significant and lasting decrease
